Values after ≈ are worked out from the molar mass of the structure shown.

By MIC is commonly meant the smallest concentration in the dilution series that meets the test's criterion for growth inhibition.

The experiment has as its system Botrytis cinerea. The experiment is described as follows: Fungicidal activity against Botryotinia fuckeliana inoculated on compound pre-treated one-leaf stage cucumber seedlings assessed as prevention of leaf lesions measured 3 days after inoculation. The class given is functional.
`Oc1c(Cl)cc(Nc2ncc(C(F)(F)F)cc2Cl)cc1Cl`: the minimal inhibitory concentration (MIC) is over 500 µg/mL.

For `N#CSc1c(C(F)(F)F)cc([N+](=O)[O-])c(Nc2ncc(C(F)(F)F)cc2Cl)c1[N+](=O)[O-]`, the MIC was over 500 µg/mL. For the compound `C[S+]([O-])c1c(C(F)(F)F)cc([N+](=O)[O-])c(Nc2ncc(C(F)(F)F)cc2Cl)c1[N+](=O)[O-]` (stereo unspecified), the MIC was over 500 µg/mL.

Take `CCOc1c(C(F)(F)F)cc([N+](=O)[O-])c(Nc2ncc(C(F)(F)F)cc2Cl)c1[N+](=O)[O-]`: the MIC was over 500 µg/mL.

`CCCOc1c(C(F)(F)F)cc([N+](=O)[O-])c(Nc2ncc(C(F)(F)F)cc2Cl)c1[N+](=O)[O-]`: the MIC is over 500 µg/mL. The same measure for `CCCCOc1c(C(F)(F)F)cc([N+](=O)[O-])c(Nc2ncc(C(F)(F)F)cc2Cl)c1[N+](=O)[O-]`: over 500 µg/mL; for `CC(C)Oc1c(C(F)(F)F)cc([N+](=O)[O-])c(Nc2ncc(C(F)(F)F)cc2Cl)c1[N+](=O)[O-]`: over 500 µg/mL. The same measure for `CC(C)COc1c(C(F)(F)F)cc([N+](=O)[O-])c(Nc2ncc(C(F)(F)F)cc2Cl)c1[N+](=O)[O-]`: over 500 µg/mL; for `O=[N+]([O-])c1cc(C(F)(F)F)c(OCC(F)(F)C(F)F)c([N+](=O)[O-])c1Nc1ncc(C(F)(F)F)cc1Cl`: over 500 µg/mL.

On to `O=[N+]([O-])c1cc(C(F)(F)F)c(OCC(F)(F)F)c([N+](=O)[O-])c1Nc1ncc(C(F)(F)F)cc1Cl`, for which the MIC is over 500 µg/mL.

For the compound `O=[N+]([O-])c1cc(C(F)(F)F)c(OCCCl)c([N+](=O)[O-])c1Nc1ncc(C(F)(F)F)cc1Cl`, the MIC is over 500 µg/mL. In the case of `O=[N+]([O-])c1cc(C(F)(F)F)c(Oc2ccccc2C(F)(F)F)c([N+](=O)[O-])c1Nc1ncc(C(F)(F)F)cc1Cl` it was over 500 µg/mL. In the case of `O=[N+]([O-])c1cc(C(F)(F)F)c(Oc2cccc(C(F)(F)F)c2)c([N+](=O)[O-])c1Nc1ncc(C(F)(F)F)cc1Cl` it was over 500 µg/mL; in that of `O=[N+]([O-])c1cc(C(F)(F)F)c(Oc2ccc(C(F)(F)F)cc2)c([N+](=O)[O-])c1Nc1ncc(C(F)(F)F)cc1Cl`, over 500 µg/mL.

In the case of `O=[N+]([O-])c1cc(C(F)(F)F)c(Oc2ccc(C(F)(F)F)cc2Cl)c([N+](=O)[O-])c1Nc1ncc(C(F)(F)F)cc1Cl`, the MIC is over 500 µg/mL. As for `CSc1c(C(F)(F)F)cc([N+](=O)[O-])c(Nc2ncc(C(F)(F)F)cc2Cl)c1[N+](=O)[O-]`, the MIC is over 500 µg/mL.

With `FC(F)(F)c1cnc(Nc2cc(Cl)c(Oc3ncc(C(F)(F)F)cc3Cl)c(Cl)c2)c(Cl)c1`, the MIC was over 500 µg/mL.

For `CS(=O)(=O)c1cc([N+](=O)[O-])c(Nc2ncc(C(F)(F)F)cc2Cl)c([N+](=O)[O-])c1Cl`, the MIC is over 500 µg/mL. The same measure for `CCN(CC)S(=O)(=O)c1cc([N+](=O)[O-])c(Nc2ncc(C(F)(F)F)cc2Cl)c([N+](=O)[O-])c1Cl`: over 500 µg/mL; for `O=[N+]([O-])c1cc(C(F)(F)F)cc([N+](=O)[O-])c1Nc1ncc(C(F)(F)F)cc1Cl`: over 500 µg/mL. The same measure for `O=[N+]([O-])c1cc(C(F)(F)F)c(F)c([N+](=O)[O-])c1Nc1ncc(C(F)(F)F)cc1Cl`: over 500 µg/mL.

Consider `O=[N+]([O-])c1cc(C(F)(F)F)c(Br)c([N+](=O)[O-])c1Nc1ncc(C(F)(F)F)cc1Cl`, for which the minimum inhibitory concentration (MIC) is under 16 µg/mL. As to `O=[N+]([O-])c1cc(C(F)(F)F)c(I)c([N+](=O)[O-])c1Nc1ncc(C(F)(F)F)cc1Cl`, the MIC is over 500 µg/mL.

Take `Nc1c(C(F)(F)F)cc([N+](=O)[O-])c(Nc2ncc(C(F)(F)F)cc2Cl)c1[N+](=O)[O-]`: the minimum inhibitory concentration (MIC) is over 500 µg/mL. As for `N#CNc1c(C(F)(F)F)cc([N+](=O)[O-])c(Nc2ncc(C(F)(F)F)cc2Cl)c1[N+](=O)[O-]`, the MIC is over 500 µg/mL.

Consider `O=[N+]([O-])c1cc(C(F)(F)F)c(O)c([N+](=O)[O-])c1Nc1ncc(C(F)(F)F)cc1Cl`, for which the MIC was over 500 µg/mL. In the case of `COc1c(C(F)(F)F)cc([N+](=O)[O-])c(Nc2ncc(C(F)(F)F)cc2Cl)c1[N+](=O)[O-]` it was over 500 µg/mL. In the case of `Cc1cc([N+](=O)[O-])c(Nc2ncc(C(F)(F)F)cc2Cl)c([N+](=O)[O-])c1Cl` it was over 500 µg/mL; in that of `Cc1c(Cl)c([N+](=O)[O-])c(Nc2ncc(C(F)(F)F)cc2Cl)c([N+](=O)[O-])c1Cl`, over 500 µg/mL; in that of `O=[N+]([O-])c1cc(C(F)(F)F)c(Cl)cc1Nc1ncc(C(F)(F)F)cc1Cl`, over 500 µg/mL.

With `Nc1cc(C(F)(F)F)c(Cl)c(N)c1Nc1ncc(C(F)(F)F)cc1Cl`, the MIC was over 500 µg/mL. Regarding `Nc1c(Cl)c(C(F)(F)F)cc([N+](=O)[O-])c1Nc1ncc(C(F)(F)F)cc1Cl`, the MIC is over 500 µg/mL. In the case of `O=[N+]([O-])c1c(Cl)c(C(F)(F)F)c(Cl)c([N+](=O)[O-])c1Nc1ncc(C(F)(F)F)cc1Cl` it was 250 µg/mL (≈ 500 µM); in that of `N#Cc1cc([N+](=O)[O-])c(Nc2ncc(C(F)(F)F)cc2Cl)c([N+](=O)[O-])c1Cl`, over 500 µg/mL; in that of `COC(=O)c1cc([N+](=O)[O-])c(Nc2ncc(C(F)(F)F)cc2Cl)c([N+](=O)[O-])c1Cl`, over 500 µg/mL.

Consider `O=[N+]([O-])c1c(Cl)cc(Nc2ncc(C(F)(F)F)cc2Cl)c([N+](=O)[O-])c1Cl`, for which the MIC was over 500 µg/mL. In the case of `O=[N+]([O-])c1cc(C(F)(F)F)c(Nc2ncc(C(F)(F)F)cc2Cl)c([N+](=O)[O-])c1Cl` it was under 16 µg/mL.

Consider `CCCSP(=O)(OCC)Oc1c(Cl)cc(Nc2ncc(C(F)(F)F)cc2Cl)cc1Cl` (stereo unspecified), for which the MIC is over 500 µg/mL. The same measure for `CCOP(=O)(Oc1c(Cl)cc(Nc2ncc(C(F)(F)F)cc2Cl)cc1Cl)SC(C)CC` (stereo unspecified): over 500 µg/mL; for `O=[N+]([O-])c1cc(C(F)(F)F)c(Cl)c([N+](=O)[O-])c1Nc1ncc(Cl)cc1Br`: over 500 µg/mL; for `O=[N+]([O-])c1cc(C(F)(F)F)c(Cl)c([N+](=O)[O-])c1Nc1ncc(Br)cc1Br`: over 500 µg/mL.

Consider `O=[N+]([O-])c1cc(C(F)(F)F)c(Cl)c([N+](=O)[O-])c1Nc1ncc(C(F)(F)F)cc1Br`, for which the MIC is under 16 µg/mL. Take `O=[N+]([O-])c1cc(C(F)(F)F)c(Cl)c([N+](=O)[O-])c1Nc1ncccc1C(F)(F)F`: the minimal inhibitory concentration (MIC) is over 500 µg/mL.

Regarding `O=[N+]([O-])c1cc(C(F)(F)F)c(Cl)c([N+](=O)[O-])c1Nc1ncc(Cl)cc1C(F)(F)F`, the MIC was found to be 16 µg/mL (≈ 34.4 µM). In the case of `O=[N+]([O-])c1cc(C(F)(F)F)c(Cl)c([N+](=O)[O-])c1Nc1ncc(Br)cc1C(F)(F)F` it was 63 µg/mL (≈ 124 µM). In the case of `O=[N+]([O-])c1cc(C(F)(F)F)c(Cl)c([N+](=O)[O-])c1Nc1ncc(C(F)(F)F)cc1C(F)(F)F` it was under 16 µg/mL. Turning to `FC(F)(F)c1cnc(Nc2cc(Cl)cc(Cl)c2)c(Cl)c1`, the MIC was over 500 µg/mL.

Consider `O=[N+]([O-])c1c(Cl)cc(Cl)c([N+](=O)[O-])c1Nc1ncc(C(F)(F)F)cc1Cl`, for which the minimal inhibitory concentration (MIC) was over 500 µg/mL.

`Fc1c(Cl)cc(Nc2ncc(C(F)(F)F)cc2Cl)c(F)c1Cl`: the MIC was over 500 µg/mL. In the case of `N#Cc1c(Cl)c(Cl)c(Cl)c(C#N)c1Nc1ncc(C(F)(F)F)cc1Cl` it was over 500 µg/mL.

As to `O=[N+]([O-])c1cc(C(F)(F)F)c(Cl)c([N+](=O)[O-])c1Nc1ccc(C(F)(F)F)cn1`, the MIC is over 500 µg/mL. The same measure for `O=[N+]([O-])c1cc(C(F)(F)F)c(Cl)c([N+](=O)[O-])c1Nc1cc(C(F)(F)F)c(Cl)cn1`: 16 µg/mL (≈ 34.4 µM); for `O=[N+]([O-])c1cc(C(F)(F)F)c(Cl)c([N+](=O)[O-])c1Nc1nc(C(F)(F)F)c(Cl)cc1Cl`: under 16 µg/mL; for `O=[N+]([O-])c1cc(C(F)(F)F)c(Cl)c([N+](=O)[O-])c1Nc1ncc(Cl)cc1Cl`: over 500 µg/mL. The same measure for `O=[N+]([O-])c1cc(C(F)(F)F)c(Cl)c([N+](=O)[O-])c1Nc1ncc(Br)cc1Cl`: over 500 µg/mL; for `O=[N+]([O-])c1cc(C(F)(F)F)c(Cl)c([N+](=O)[O-])c1Nc1nc(F)c(C(F)(F)F)cc1Cl`: under 16 µg/mL.

In the case of `O=[N+]([O-])c1cc(C(F)(F)F)c(Cl)c([N+](=O)[O-])c1Nc1nc(Cl)c(C(F)(F)F)cc1Cl`, the minimal inhibitory concentration (MIC) is under 16 µg/mL.

As to `CN(C)c1nc(Nc2c([N+](=O)[O-])cc(C(F)(F)F)c(Cl)c2[N+](=O)[O-])c(Cl)cc1C(F)(F)F`, the minimal inhibitory concentration (MIC) was over 500 µg/mL. In the case of `CNc1nc(Nc2c([N+](=O)[O-])cc(C(F)(F)F)c(Cl)c2[N+](=O)[O-])c(Cl)cc1C(F)(F)F` it was over 500 µg/mL; in that of `N#Cc1cnc(Nc2c([N+](=O)[O-])cc(C(F)(F)F)c(Cl)c2[N+](=O)[O-])c(Cl)c1`, 63 µg/mL (≈ 149 µM); in that of `NC(=O)c1cnc(Nc2c([N+](=O)[O-])cc(C(F)(F)F)c(Cl)c2[N+](=O)[O-])c(Cl)c1`, over 500 µg/mL. The same measure for `CCOC(=O)c1cnc(Nc2c([N+](=O)[O-])cc(C(F)(F)F)c(Cl)c2[N+](=O)[O-])c(Cl)c1`: over 500 µg/mL; for `COC(=O)c1cnc(Nc2c([N+](=O)[O-])cc(C(F)(F)F)c(Cl)c2[N+](=O)[O-])c(Cl)c1`: over 500 µg/mL. In the case of `O=C(O)c1cnc(Nc2c([N+](=O)[O-])cc(C(F)(F)F)c(Cl)c2[N+](=O)[O-])c(Cl)c1` it was over 500 µg/mL; in that of `Cc1c(Cl)cnc(Nc2c([N+](=O)[O-])cc(C(F)(F)F)c(Cl)c2[N+](=O)[O-])c1Cl`, over 500 µg/mL; in that of `O=[N+]([O-])c1cc(C(F)(F)F)c(Cl)c([N+](=O)[O-])c1Nc1ncc(C(F)(F)F)cc1Cl` [FLUAZINAM], under 16 µg/mL.

The values are drawn from ChEMBL document CHEMBL3044862, “Quantitative Structure-Activity Relationships of Fluazinam and Related Fungicidal N-Phenylpyridinamines” (1995).
